One assay has as its system COLO320-HSR cells. Briefly: PVT1 promoter-driven NanoLuc luciferase reporter in COLO320-HSR. Format: cell-based, human. As to conditions: JQ1 500 nM, 6 hours. The text has this: We constructed a plasmid containing the 2 kb PVT1 promoter (chr8: 128,804,981-128,806,980, hg19) or the MYC promoter (chr8: 128,745,990-128,748,526, hg19) driving NanoLuc luciferase (PVT1p-nLuc) and a constitutive thymidine kinase (TK) promoter driving Firefly luciferase as an internal control (FIG. 3b). Briefly, pGL4-tk-luc2 (Promega) was digested with KpnI and PciI. A sequence containing multiple cloning sites ([…]), NanoLuc and BGH polyA sequence were inserted in tandem into the vector using Gibson assembly (NEBuilder DNA assembly mix). Next, the PVT1 promoter or the MYC promoter was inserted into the vector via NheI and SalI digestion to generate the final reporter construct. For the negative control, a minimal promoter ([…]) was used in place of the PVT1 promoter. For constructing plasmids with a cis-enhancer, an enhancer (chr8: 128347148-128348310, hg19; positive H3K27ac mark and looping to the PVT1 promoter in HiChIP, overlapping with BRD4 ChIP peak and ATAC-seq peak in COLO320-DM) was inserted directly 5′ to the promoter into the region with multiple cloning sites. […] Luciferase levels were quantified using Nano-Glo Dual reporter luciferase assay (Promega). The reporter level was calculated as the ratio of NanoLuc reading over firefly reading using Tecan M1000. Mean and standard errors were calculated based on three biological replicates with three technical replicate each.
(Reporter assays use an easily measured gene product as a stand-in for the process of interest.)

The subject of assay [1] is MYC transcription from ecDNA in COLO320-DM. Briefly: MYC transcription probability by joint nascent RNA and DNA FISH. In kind it is cell-based, human. As to conditions: 500 nM JQ1, 6 hours, RNA normalized to ecDNA copy number. The text has this:
To quantify the MYC gene expression on the ecDNAs, we ordered the RNA FISH probes conjugated with a Quasar 570 dye (Biosearch Technologies) targeting to the intronic region of human (hg19) MYC gene for detection of nascent RNA transcript. We also ordered the RNA FISH probes conjugated with a Quasar 670 dye targeting to the exonic region of human MYC gene for detection of both mature and nascent RNA transcripts. […]
To characterize the ecDNA hub shape and size, we employed the synthetic model—Surfaces object from Imaris (version 9.1, Bitplane) and applied a Gaussian filter (σ=1 voxel in xy) and background subtraction for optimal segmentation and quantification of ecDNA hubs. ecDNA hubs containing connected voxels were sorted by size and singleton ecDNAs were separated from ecDNA hubs (minimal two ecDNA molecules).
To measure the number of ecDNA or nascent transcripts, we localized the voxels corresponding to the local maximum of identified DNA or RNA FISH signal using the Imaris spots function module. We validated the accuracy of interphase ecDNA counting by comparing to quantification of ecDNA number by metaphase FISH as well as copy number estimated by whole genome sequencing FIG. 5f). […]

Experimental findings from US20250304952A1, “DNA ELEMENT RESPONSIVE TO EXTRACHROMOSOMAL DNA IN CANCER CELLS” (The Board of Trustees of the Leland Stanford Junior …, priority 2021, published 2025) are described below.

`Cc1sc2c(c1C)C(c1ccc(Cl)cc1)=N[C@@H](CC(=O)OC(C)(C)C)c1nnc(C)n1-2` [JQ1]: the “repression of PVT1p-mediated transcription” value in the assay on COLO320-HSR cells was approximately 2 fold. Further, the “reduction of MYC transcription probability per ecDNA copy” value in assay [1] is recorded as “four-fold”.
